{"source": "patent US20250040558A1", "about": "“ANTIMICROBIAL ACTIVITY OF CHLORITE-ENTRAINED POLYMERS” (CSP Technologies, Inc., priority 2021, published 2025)", "key": {"S. Newport": {"system": "S. Newport", "assay": "Reduction of S. Newport on sliced tomatoes", "type": "cell-based", "conditions": "4° C.", "method": "The skins of sliced tomatoes were spot inoculated with S. Newport. Sliced tomatoes were sealed in a controlled environment containing ClO2 or a regular plastic seal. The inoculated tomato skins were removed and processed on days 0, 1, 2, 5 and 7, after which S. Newport was evaluated by plating onto XLT-4 agar.\nS. Newport was grown in TSB at 37° C. for 18-24 hr. Bacteria was resuspended in E-pure water. Serial dilutions of the inoculum were plated onto XLT-4 plates and incubated at 37° C. for 18-24 hours.\nTomatoes were first prepared by rinsing with 70% ethanol and thoroughly rinsing with sterile e-pure water. Tomatoes were sliced using a sterile tomato slicer (Prince Castle, Inc) and placed in pre-labelled trays. Five tomatoes were sliced per Aptar tray (4×10.3×3.4 inches). The tomatoes were spiked by inoculating two slices of each tomato with 10 μL of S. Newport. Tomatoes were incubated at room temperature for 1 hr. After drying, each tray was heat sealed with a tray sealing instrument (Maxwell Chase Technologies) at a temperature of 390° F. For the experimental group, the film was treated with 0.63 g of chlorine dioxide. Trays were stored at 4° C. until specimen collection. For each treatment of 1 hr, 24 hr, 48 hr, and 5 days, and 7 days a control and a treated tray were evaluated. Tomato skins of spiked slices were collected and tested for the presence of S. Newport. […]"}, "Microsporidia": {"system": "Microsporidia", "assay": "Microsporidia spore viability on tomato slices (RK-13 culture, Calcofluor White)", "type": "cell-based", "conditions": "4° C.", "method": "Rabbit kidney (Rk-13) cell lines were maintained in flasks using 3.5% Fetal Bovine Serum (HIFBS) EMEM medium 1× antibiotics and antimycotics. Flasks were incubated at 37° C. and 5% CO2 until preparation of slides. 16-microwell slides were seeded with cells and grown in 10% (HIFBS) EMEM medium for 48 hours before inoculation with spores.\nFresh Microsporidia spores were propagated and harvested using RK-13 tissue cultures. The harvested medium containing cell debris and spores was filtered through a 5 μm filter, centrifuged at 2000 g for 15 minutes and counted using a hemocytometer.\nTomatoes were first prepared by rinsing with 70% ethanol and thoroughly rinsing with sterile e-pure water. Tomatoes were sliced using a sterile tomato slicer (Prince Castle, Inc) and placed in pre-labelled trays. Five tomatoes were sliced per Aptar tray (4×10.3×3.4 inches). The tomatoes were spiked by inoculating two slices of each tomato with 10 microliters of oocysts. Tomatoes were incubated at room temperature for 1 hr. […] For each treatment of 1 hr, 24 hr, 48 hr, and 5 days, and 7 days a control and a treated tray were evaluated. […]\nTomato slices spiked with Microsporidia were suspended in F12 media. […] Spore counts were taken using an epifluorescence microscope at 40× magnification and recorded."}}}
{"smiles": "[O][Cl+][O-]", "note": "[chlorine dioxide]", "values": [{"measurement": "inactivation of S. Newport", "setting": "S. Newport; film with 0.63 g chlorine dioxide", "value": "effective in inactivation"}, {"measurement": "inactivation of S. Newport", "setting": "S. Newport; two days of treatment", "value": "complete inactivation"}, {"measurement": "Microsporidia spore viability", "setting": "Microsporidia; 24 hours of treatment", "value": "completely inactivated"}, {"measurement": "Microsporidia spore viability", "setting": "Microsporidia; after one hour of treatment", "value": "effectively reduced spore viability"}]}
